# What was measured:
# MOG-induced EAE [1] = assay: MOG-induced EAE mouse model of MS, clinical signs; type: in vivo, C57Bl/6 mice; conditions: for Percent Inhibition-1: inhibition according to incidence vs vehicle; for Onset (of disease): no EAE counted as 31 days; for Percent Inhibition-3: reduction of GMS vs vehicle; for Percent Inhibition-2: reduction of MMS vs vehicle; for Incidence: sick/total
# [2] = design: species or system mice; conditions: mouse, in vivo
# Protocol: PTX was injected intraperitoneally on the day of induction and 48 hours later at 100 ng/0.2 ml/mouse. […] All animals were monitored daily for clinical signs from the tenth day post-EAE induction until day 30. Scoring of EAE clinical signs was recorded on observations cards according to the grading system described herein.
# MOG-induced EAE [3] = assay: Histological scoring of spinal cords from MOG-induced EAE mice (inflammation, demyelination); type: in vivo, C57Bl/6 mice; conditions: 30 and 55 mg/kg twice a day and 110 mg/kg once a day; range over groups
# From the text: At the end of the observation period (day 30) the mice of the treatment groups were necropsied. The mice were deeply anesthetized with isoflourane and air and transcardially perfused, initially with a flushing solution (saline with heparin) until the perfusate was bloodless and then flushed with 4% buffered formalin. The vertebral columns (from the cervical region to the lumbar region) of each of the mice were dissected. The vertebral column was isolated by cutting away as much muscle as possible and sectioned distally at the last rib. The brain and the vertebral column were preserved in 4% buffered formalin.
# Two transverse sections from each cervical and lumbar intumescence (cervico-thoracic and lumbo-sacral vertebral segments) were evaluated. […] Histological sections were scored blind. Inflammation was evaluated for both gray and white matter, demyelination was evaluated within white matter only, and axonal injury was evaluated within the white matter. […] The percentage axonal loss was determined by subtracting the number of points crossing axons subtracted by the total number of points of the stereological grid, divided by the total number of points of the stereological grid.
# Two transverse sections from each cervical and lumbar intumescence (cervico-thoracic and lumbo-sacral vertebral segments) were evaluated. […]
# PLP-induced EAE [4] = assay: Ex vivo blinded pathology scoring in PLP-induced EAE; design: species or system SJL/J mice; conditions: 100 mg/kg dose; p<0.05; data not shown
# Protocol: Two transverse sections from each cervical and lumbar intumescence (cervico-thoracic and lumbo-sacral vertebral segments) were evaluated. Histological evaluation was performed on 4 μm thick sections stained with hematoxylin-eosin (H&E), Luxol fast blue periodic acid-Schiff (LFB/PAS) and Bielschowsky silver impregnation to assess inflammation, demyelination and axonal pathology. Histological sections were scored blind. Inflammation was evaluated for both gray and white matter, demyelination was evaluated within white matter only, and axonal injury was evaluated within the white matter. Scores from both cervico-thoracic, and lumbosacral sections, respectively, were averaged to obtain the average inflammation score and demyelination scores. The most severe area of demyelination for each section was used to evaluate axonal pathology. […] The percentage axonal loss was determined by subtracting the number of points crossing axons subtracted by the total number of points of the stereological grid, divided by the total number of points of the stereological grid.
# in vivo = assay: in vivo; design: species or system male beagle dogs; conditions: dog, po
# JAK2 = JAK2 (Homo sapiens, UniProt O60674); conditions: statement with reference to earlier filings; cited from earlier work
# PLP-induced EAE [5] = assay: PLP-induced EAE mouse model (relapsing-remitting), clinical signs; type: in vivo, SJL/J mice; conditions: for Mortality: dead/total, to day 60; for Incidence: sick/total
# SCH-induced EAE = SCH-induced EAE mouse model (acute), clinical signs; type: in vivo, (Balb/c×SJL) F1 (CSFL) mice; conditions: for GMS reduction / MMS reduction: vs vehicle
# [6] = 110 mg/kg orally once a day, vs vehicle
# [7] = 110 mg/kg orally twice a day (so in the source)
# Sequence of JAK2 (O60674 whole entry, species assumed): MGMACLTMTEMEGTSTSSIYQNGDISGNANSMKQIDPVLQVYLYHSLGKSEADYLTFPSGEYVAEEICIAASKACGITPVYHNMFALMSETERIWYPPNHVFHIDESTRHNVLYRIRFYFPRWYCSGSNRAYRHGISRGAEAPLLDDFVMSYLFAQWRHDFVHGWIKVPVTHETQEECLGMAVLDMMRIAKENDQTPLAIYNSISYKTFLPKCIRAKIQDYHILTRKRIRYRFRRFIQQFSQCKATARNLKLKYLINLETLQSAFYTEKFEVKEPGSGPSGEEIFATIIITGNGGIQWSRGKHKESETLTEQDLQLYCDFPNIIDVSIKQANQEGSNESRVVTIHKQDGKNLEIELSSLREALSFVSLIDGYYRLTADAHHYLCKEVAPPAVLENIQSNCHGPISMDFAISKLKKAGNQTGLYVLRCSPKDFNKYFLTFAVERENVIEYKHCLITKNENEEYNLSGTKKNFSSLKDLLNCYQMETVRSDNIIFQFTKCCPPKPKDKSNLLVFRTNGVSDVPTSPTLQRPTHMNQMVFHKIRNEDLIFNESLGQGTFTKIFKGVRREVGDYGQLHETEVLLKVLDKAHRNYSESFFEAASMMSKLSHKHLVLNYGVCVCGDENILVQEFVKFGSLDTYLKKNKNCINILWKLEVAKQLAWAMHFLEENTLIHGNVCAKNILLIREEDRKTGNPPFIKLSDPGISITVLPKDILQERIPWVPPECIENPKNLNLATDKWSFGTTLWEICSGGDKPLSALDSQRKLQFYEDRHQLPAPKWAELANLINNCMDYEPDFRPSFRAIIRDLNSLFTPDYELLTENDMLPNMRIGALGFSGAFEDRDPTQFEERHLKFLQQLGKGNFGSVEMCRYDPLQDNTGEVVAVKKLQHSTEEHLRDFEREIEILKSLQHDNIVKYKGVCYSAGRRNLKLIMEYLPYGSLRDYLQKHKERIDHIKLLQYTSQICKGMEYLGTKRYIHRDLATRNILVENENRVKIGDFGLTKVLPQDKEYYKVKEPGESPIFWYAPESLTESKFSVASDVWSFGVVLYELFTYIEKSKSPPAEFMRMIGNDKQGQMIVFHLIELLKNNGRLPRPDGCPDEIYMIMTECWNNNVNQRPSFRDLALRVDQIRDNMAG
smiles,measurement,setting,value
"CN1CCN(c2cccc(Nc3nc4c(-c5ccc(S(C)(=O)=O)cc5)cccn4n3)c2)CC1 [Compound A, [8-(4-methanesulfonyl-phenyl)-[1,2,4]triazolo[1,5-a]pyridin-2-yl]-[3-(4-methyl-piperazin-1-yl)-phenyl]-amine]",Duration (of disease),MOG-induced EAE [1]; 30 mg/kg orally twice a day,3.7 ± 6.1 days
same,GMS (group mean score),MOG-induced EAE [1]; 30 mg/kg orally twice a day,0.2±0.4
same,MMS (mean maximal score),MOG-induced EAE [1]; 30 mg/kg orally twice a day,0.7±1.0
same,Mortality,"MOG-induced EAE [1]; 30 mg/kg orally twice a day, dead/total, to day 30",0/15
same,Percent Inhibition-1,MOG-induced EAE [1]; 30 mg/kg orally twice a day,53.3%
same,Onset (of disease),MOG-induced EAE [1]; 30 mg/kg orally twice a day,23.7 ± 8.2 days
same,Percent Inhibition-3,MOG-induced EAE [1]; 30 mg/kg orally twice a day,90.5%
same,Percent Inhibition-2,MOG-induced EAE [1]; 30 mg/kg orally twice a day,79.4%
same,Incidence,"MOG-induced EAE [1]; 30 mg/kg orally twice a day, to day 30",7/15
same,reduction in clinical scores compared to vehicle (FIG. 1),MOG-induced EAE [1]; 30 mg/kg orally twice daily,90.5%
same,Duration (of disease),MOG-induced EAE [1]; 55 mg/kg orally twice a day,0.2 ± 0.8 days
same,GMS (group mean score),MOG-induced EAE [1]; 55 mg/kg orally twice a day,0.01±0.04
same,MMS (mean maximal score),MOG-induced EAE [1]; 55 mg/kg orally twice a day,0.1±0.3
same,Mortality,"MOG-induced EAE [1]; 55 mg/kg orally twice a day, dead/total, to day 30",0/15
same,Percent Inhibition-1,MOG-induced EAE [1]; 55 mg/kg orally twice a day,93.3%
same,Onset (of disease),MOG-induced EAE [1]; 55 mg/kg orally twice a day,30.5 ± 2.1 days
same,Percent Inhibition-3,MOG-induced EAE [1]; 55 mg/kg orally twice a day,99.5%
same,Percent Inhibition-2,MOG-induced EAE [1]; 55 mg/kg orally twice a day,97.1%
same,Incidence,"MOG-induced EAE [1]; 55 mg/kg orally twice a day, to day 30",1/15
same,reduction in clinical scores compared to vehicle (FIG. 1),MOG-induced EAE [1]; 55 mg/kg orally twice daily,99.5%
same,GMS reduction,MOG-induced EAE [1]; [6],98.5%
same,MMS reduction,MOG-induced EAE [1]; [6],97.1%
same,reduction in clinical score over that of vehicle (FIG. 1),MOG-induced EAE [1]; 110 mg/kg orally once daily,98.5%
same,Duration (of disease),MOG-induced EAE [1]; [7],0.5 ± 2.1 days
same,GMS (group mean score),MOG-induced EAE [1]; [7],0.03 ± 0.1
same,MMS (mean maximal score),MOG-induced EAE [1]; [7],0.1 ± 0.3
same,Mortality,"MOG-induced EAE [1]; 110 mg/kg orally twice a day (so in the source), dead/total, to day 30",0/15
same,Percent Inhibition-1,MOG-induced EAE [1]; [7],93.3%
same,Onset (of disease),MOG-induced EAE [1]; [7],30.5 ± 2.1 days
same,Percent Inhibition-3,MOG-induced EAE [1]; [7],98.5%
same,Percent Inhibition-2,MOG-induced EAE [1]; [7],97.1%
same,Incidence,"MOG-induced EAE [1]; 110 mg/kg orally twice a day (so in the source), to day 30",1/15
same,Mortality,MOG-induced EAE [1]; any of the MOG-induced EAE treatment groups,not observed
same,impact on clinical score over vehicle,"MOG-induced EAE [1]; once daily dosing at 10 mg/kg, 30 mg/kg and 60 mg/kg (data not shown)",no significant impact over vehicle
same,exposures associated with efficacy,[2],2000 to 4000 ng/mL
same,reduction of demyelination over vehicle (LFB/PAS),MOG-induced EAE [3],17.3%-23.9%
same,reduction of spinal inflammation over vehicle (H&E),MOG-induced EAE [3],41.6%-57.5%
same,reduction of inflammation (H&E staining),PLP-induced EAE [4],significance in the reduction of inflammation
same,dose relation of Cmax and AUC,in vivo; 30 mg/kg,"linear, dose-related increases"
same,Cmax,"in vivo; male, beagle, 100 mg/kg",1760 ng/mL
same,inhibition of JAK2,JAK2,potent
same,GMS (1st and 2nd relapse),PLP-induced EAE [5]; 30 mg/kg orally twice a day,1.3 ± 0.9
same,Mortality,PLP-induced EAE [5]; 30 mg/kg orally twice a day,0/15
same,Incidence,PLP-induced EAE [5]; 30 mg/kg orally twice a day,15/15
same,reduction in overall mean clinical scores compared to vehicle (FIG. 4),PLP-induced EAE [5]; 30 mg/kg twice daily,25.9%
same,reduction in clinical score over that of vehicle,PLP-induced EAE [5]; 60 mg/kg once daily (data not shown),20.1%
same,GMS (1st and 2nd relapse),PLP-induced EAE [5]; 60 mg/kg orally once a day,1.4 ± 0.8
same,Mortality,PLP-induced EAE [5]; 60 mg/kg orally once a day,0/15
same,Incidence,PLP-induced EAE [5]; 60 mg/kg orally once a day,15/15
same,GMS (1st and 2nd relapse),PLP-induced EAE [5]; 60 mg/kg orally twice a day,0.8 ± 0.4
same,Mortality,PLP-induced EAE [5]; 60 mg/kg orally twice a day,0/15
same,Incidence,PLP-induced EAE [5]; 60 mg/kg orally twice a day,15/15
same,reduction in overall mean clinical scores compared to vehicle (FIG. 4),PLP-induced EAE [5]; 60 mg/kg twice daily,49.9%
same,reduction in clinical score over that of vehicle,PLP-induced EAE [5]; 100 mg/kg once daily (data not shown),54.9%
same,GMS (1st and 2nd relapse),PLP-induced EAE [5]; 100 mg/kg orally once a day,0.9 ± 0.5
same,Mortality,PLP-induced EAE [5]; 100 mg/kg orally once a day,0/15
same,Incidence,PLP-induced EAE [5]; 100 mg/kg orally once a day,15/15
same,GMS (1st and 2nd relapse),PLP-induced EAE [5]; 100 mg/kg orally twice a day,0.3 ± 0.3
same,Mortality,PLP-induced EAE [5]; 100 mg/kg orally twice a day,0/15
same,Incidence,PLP-induced EAE [5]; 100 mg/kg orally twice a day,10/15
same,activity in the first relapse,PLP-induced EAE [5]; 100 mg/kg twice a day,97.6%
same,activity in the second relapse,PLP-induced EAE [5]; 100 mg/kg twice a day,85.9%
same,reduction in overall mean clinical scores compared to vehicle (FIG. 4),PLP-induced EAE [5]; 100 mg/kg twice daily,86.1%
same,Clinical score reduction compared to vehicle (FIG. 3),SCH-induced EAE; 30 mg/kg orally twice a day,37.3%
same,Duration (of disease),SCH-induced EAE; 30 mg/kg orally twice a day,8.2 ± 3.3 days
same,Onset (of disease),SCH-induced EAE; 30 mg/kg orally twice a day,16.2 ± 2.0 days
same,GMS reduction,SCH-induced EAE; 30 mg/kg orally twice a day,37.3%
same,MMS reduction,SCH-induced EAE; 30 mg/kg orally twice a day,17.5%
same,Clinical score reduction compared to vehicle (FIG. 3),SCH-induced EAE; 60 mg/kg orally twice a day,58.3%
same,Duration (of disease),SCH-induced EAE; 60 mg/kg orally twice a day,8.4 ± 4.2 days
same,Onset (of disease),SCH-induced EAE; 60 mg/kg orally twice a day,16.4 ± 3.0 days
same,GMS reduction,SCH-induced EAE; 60 mg/kg orally twice a day,58.3%
same,MMS reduction,SCH-induced EAE; 60 mg/kg orally twice a day,30%
same,Mortality,"SCH-induced EAE; range over groups treated with Compound A, vehicle 40%",20-80%

# — patent US20160303116A1, “TREATMENT OF MULTIPLE SCLEROSIS WITH A 1,2,4-TRIAZOLO [1,5A] PYRIDINE DERIVATIVE” (CEPHALON, INC., priority 2013, published 2016)
